In a melting point compilation (Tetko et al.; mined from patent text by program, amines drawn as free bases though some values may be those of a salt):

Structure (SMILES)	melting point
COc1ccc(-c2nc(Sc3nc(-c4ccc(OC)cc4)c(-c4ccc(OC)cc4)[nH]3)[nH]c2-c2ccc(OC)cc2)cc1	244 to 245 °C
CC(C)(C)OC(=O)c1ccc(C#Cc2cnc3nc(N)nc(O)c3c2)cc1	> 260 °C
COC(=O)COc1ccc(CCCOS(C)(=O)=O)cc1	49 to 51 °C
O=[N+]([O-])c1ccc(-n2ncnc2-c2cnccn2)cc1	188 to 189 °C
CC(=O)OC(C(=O)O)c1c(C(C)C)cc(C(C)C)cc1C(C)C (stereo not given)	166 to 169 °C
COc1ccc2c(c1)C13CCN(C)C(C2)C1(OC(C)=O)CCOC3 (stereo not given)	161 to 163 °C
COc1ccc(COc2ccc(COc3ccc4c(c3)CCC(CN(C)C)C4)cc2)cc1 (stereo not given)	106 to 111 °C
NS(=O)c1ccccc1 (stereo not given)	112 to 115 °C
Cc1nc2c(N)nc3cc(OCCC4CCN(C(=O)NC5CCCCC5)CC4)ccc3c2n1CC(C)C	214 to 216 °C
CC(C)(C)c1cc(C(c2ccc(C#N)cc2)N2CCCCC2)c(O)c(C(C)(C)C)c1 (stereo not given)	165 to 166 °C
COC(=O)c1ccc(Cn2c(C(=O)Nc3nc(-c4cc(OC)c(Cl)cc4OC)c(CCC4CCCCC4)s3)cc3cc(C)cc(C)c32)cc1	199 to 200 °C
CCOC(=O)c1ccc(N=C(Nc2ccc(C(=O)OCC)cc2)c2ccc(OC)cc2)cc1	145 to 146 °C
CCC1C(C)=NN=C(c2ccc(OC)c(OC)c2)c2cc(OC)c(OC(C)C)cc21 (stereo not given)	109 to 111 °C
COC(=O)NN=C(C)c1c[nH]c(-c2ccccc2)n1	226 to 227 °C
O=C(O)c1cc(OCc2ccccc2)nc(OCc2ccccc2)c1	145 to 147 °C
Cn1nc(-c2nc(C#Cc3ccccc3)c(N)nc2-c2ccccc2)ccc1=O	234 to 236 °C
Oc1ccc2[nH]cc(C3CCN(CCCCc4c[nH]c5ccccc45)CC3)c2c1	178 to 180 °C
CCOc1ncc(I)cc1C(N)=O	176 to 179 °C
O=C(C1CC1)N1CC[C@H](c2ccccc2)[C@H](O)C1 (relative stereo)	128 to 129 °C
CC(C)c1[nH]nc2c1C(=O)c1c(NC(=O)NN3CCN(C)CC3)cccc1-2	231 to 233 °C
CC(C)(C)OC(=O)NC(Cc1ccc([N+](=O)[O-])cc1)C(=O)O (stereo not given)	105 to 107 °C
O=C(Nc1cccc2[nH]ccc12)C1(OCC2CO2)C=C(Cl)C=CC1 (stereo not given)	175 °C

Structure (SMILES)	melting point
CCCCCC(Cc1ccc(OC)c(OCCc2ccccc2)c1)NC(=O)OC(C)(C)C (stereo not given)	91.5 to 92.5 °C
CC(=O)N1CCN(C)C1C(c1ccccc1)c1ccccc1 (stereo not given)	164 to 165 °C
COC(=O)C12OCC34C(CC5C(C)=C(O)C(=O)CC5(C)C3C(O)C1O)OC(=O)C(OC(=O)C=C(C)C(C)C)C24 (stereo not given)	220 to 223 °C
NS(=O)(=O)Oc1ccc(C(c2ccc(OS(N)(=O)=O)c(Br)c2)n2cncn2)cc1Br	98 to 102 °C
COCCOc1ccc(CCNC(=O)c2cnc3ccccc3c2)cc1S(N)(=O)=O	170 °C
COc1nc(C)nc(NC(=O)NS(=O)(=O)c2ccccc2OCC2(C)OCCO2)n1	135 to 136 °C
CC(C=CC(C)C(C)(C)O)C1CCC2C(=O)CCCC21C (stereo not given)	101 to 102 °C
Cc1cnn(C(C)C(=O)N(C)C)c1-c1ccccc1 (stereo not given)	88 to 90 °C
Cn1c([N+](=O)[O-])cnc1-c1nc(C=O)cs1	180 to 182 °C
O=C(O)CCCCCc1nn(-c2ccc([N+](=O)[O-])cc2)c2c1CCCC2	119 to 121 °C
c1ccc2c(c1)CC(CCN1CCN(c3cccc4[nH]ccc34)CC1)C2	146 to 147 °C
O=C(c1cc(-c2ccccc2)c2sccc2c1)N1CCCCC1	112 °C
COC(C)=CC(=O)Nc1cccc(C)c1	106 °C
CCCn1nc(OCc2ccccc2)cc1/C=C/C(=O)OCC	58 to 59 °C
O=C(O)CCCc1ccc(C(NS(=O)(=O)c2ccc(Cl)cc2)C2CCCC2)cc1 (single isomer, unassigned; (-))	160 to 162 °C
CN1C(=O)COc2cc3c(cc21)C1(CO3)C(=O)N(CC2CCCO2)c2ccccc21 (stereo not given)	79 to 81 °C
COc1cc2c(cc1OC)C(C(CO)CO)NCC2 (stereo not given)	140 °C
CC(=O)Nc1nc(N)nc(C2CCC(c3ccccc3)CC2)n1 (stereo not given)	> 260 °C
O=c1[nH]c2ccc([C@H]3CC[C@H](NCCCc4ccc(F)cc4)CC3)cc2[nH]1	336 to 339 °C
COC(=O)CC1CCN(C(=O)C2CCN(c3ccc(C#N)cn3)CC2)CC1	112 to 115 °C
COC(=O)C(c1ccccc1)C1CCN(c2ccc([N+](=O)[O-])cc2)CC1 (stereo not given)	124 °C
O=C(NCCc1ccccn1)Nc1cc(N2CC(c3ccccc3)CC2=O)ccn1 (stereo not given)	202 to 204 °C

More lines, now with the values ahead:

melting point	Structure (SMILES)
142 to 145 °C	COc1ccc(-c2nc3cc(Cl)ccc3o2)cc1OC
128 to 131 °C	CCN(CC)c1ccc(NC(=O)c2ccc(C)c(Nc3nccc(-c4cccnc4)n3)c2)cc1C(F)(F)F
133 °C	CS(=O)(=O)c1ccc(NCC(O)CO)c([N+](=O)[O-])c1 (stereo not given)
116 °C	Cc1ccc(-c2ccccc2)cc1Cn1c(Cl)nn(C)c1=O
244 to 247 °C	COC(=O)c1cnc2c3cc(NC(=O)CCC4CCCC4)ccc3ncn2c1=O
302 to 305 °C	O=C1CCC(n2cnc3ccc(Cl)cc3c2=O)C(=O)N1 (stereo not given)
235 to 236 °C	CC(C)(C(=O)O)C(O)c1ccnc(-c2nc(=O)c3ccccc3s2)c1 (stereo not given)
178 to 181 °C	CCCSc1ncc(CC(NC(=O)CCC)C(=O)O)n1Cc1ccccc1Cl (stereo not given)
68 to 69 °C	Cc1cncc(C)c1-c1c(C)cc(OS(=O)(=O)C(F)(F)F)cc1C
164 to 165 °C	Cc1nc(N)c2nc(CO)n(Cc3cc(-c4ccc(F)cc4)no3)c2c1C
69 to 70 °C	CCOC(=O)CCCCCN(NS(=O)(=O)c1ccc(Cl)cc1)C(=O)Nc1cc(OC)cc(C(C)(C)C)c1O
161 to 163 °C	CCCCCCc1ncc(/C=C(\Cc2cccs2)C(=O)O)n1Cc1ccccc1Cl
113 to 114 °C	C=CCNc1nc(Cl)c2ccn(C)c2n1
68 to 71 °C	CCOC(=O)CC(=O)Nc1ccc(F)cc1
115 to 116 °C	CCOC(=O)C1=C(CCl)NC(C)=C(C(=O)OC)C1c1cccc(C(F)(F)F)c1 (stereo not given)
> 250 °C	COc1ccc2nc(-c3nc(N)nc(N)n3)sc2c1
92 to 94 °C	CC(C)(O)c1ccc(CNC(=O)c2cccnc2Oc2ccc(F)cc2F)cc1
88.5 to 89.5 °C	CCOC(=O)CNC(=O)COc1c(F)cc(CSCCNS(=O)(=O)c2ccc(Cl)cc2)cc1F
252 to 253 °C	CCn1nc(-c2ccncc2)c(C(C)=O)c(Nc2ccc(C(=O)O)cc2)c1=O
57 to 58 °C	Cc1cc(CCCCCOc2c(Cl)cc(-c3nc(C)c(C)s3)cc2Cl)on1
192 to 194 °C	Cc1ccc(-c2cc(N)c(Cl)c(C(=O)O)n2)cc1C
158 to 159 °C	Cc1ncc(-c2ccc(Cl)cc2)cc1C#N
182 to 183 °C	O=C(O)CNc1ccc(Cl)cc1C(=O)O
99 to 101 °C	COc1cc2c3c(c1)nc(SCc1ccncc1)n3CCC2
> 250 °C	COc1cc2c(=O)cc(C(=O)O)n(C)c2ccc1=O
167 to 168 °C	CCn1c(Nc2cc(Cl)ccc2Cl)nc(C(F)(F)F)cc1=O
